#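 Growth conditions: 96-well plates. Treatment: test compound, 48 hours, 5 concentrations. Analysis: linear interpolation between bracketing concentrations; unreached endpoints set to highest concentration. GI50 = concentration required for 50% inhibition of growth.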 Activity calls are given as the source filed them. No stated cut-off is given here; in the data, active = GI50 up to about 1.1 µM and inactive = higher.
# Experiments:
# Assay in all cases: NCI anticancer screen, dose series, 48 h
# [1] = system: TK-10
# [2] = system: MDA-MB-231
# [3] = system: UACC-257
# [4] = system: NCI-H226
# [5] = system: OVCAR-8
# [6] = system: K562
# [7] = system: SK-MEL-2
# [8] = system: SNB-19
# [9] = system: SF-268
# [10] = system: SK-OV-3
# [11] = system: M14
# [12] = system: EKVX
# [13] = system: U-251
# [14] = system: HCT-15
# [15] = system: IGROV-1
# [16] = system: KM12
# [17] = system: SN12C
# [18] = system: ACHN
# [19] = system: UO-31
# [20] = system: HOP-62
SMILES,GI50 [1],GI50 [2],GI50 [3],GI50 [4],GI50 [5],GI50 [6],GI50 [7],GI50 [8],GI50 [9],GI50 [10],GI50 [11],GI50 [12],GI50 [13],GI50 [14] [µM],GI50 [15],GI50 [16],GI50 [17],GI50 [18],GI50 [19],GI50 [20]
CCC(C#N)NCc1cccc(CNC(C#N)CC)c1 (stereo not drawn),> 100 µM (inactive),> 100 µM (inactive),> 100 µM (inactive),> 100 µM (inactive),> 100 µM (inactive),> 100 µM (inactive),> 100 µM (inactive),> 100 µM (inactive),> 100 µM (inactive),18.4 µM (inactive),17.6 µM (inactive),> 100 µM (inactive),> 100 µM (inactive),> 100,> 100 µM (inactive),> 100 µM (inactive),> 100 µM (inactive),> 100 µM (inactive),> 100 µM (inactive),
CCOC(=O)c1sc2nc(SC)nc3c2c1NC(=O)CN3c1ccc(F)cc1,30.7 µM (inactive),26.9 µM (inactive),68.7 µM (inactive),41.7 µM (inactive),22.1 µM (inactive),77.6 µM (inactive),54.3 µM (inactive),27.8 µM (inactive),20 µM (inactive),25 µM (inactive),37.9 µM (inactive),47.4 µM (inactive),43.5 µM (inactive),,> 100 µM (inactive),> 100 µM (inactive),24.6 µM (inactive),21.6 µM (inactive),18 µM (inactive),15.7 µM (inactive)
Clc1ccc(C2ON=C(c3ccccc3)N2C23CC4CC(CC(C4)C2)C3)cc1 (stereo not drawn),> 10 µM (inactive),> 10 µM (inactive),> 10 µM (inactive),> 10 µM (inactive),> 10 µM (inactive),> 10 µM (inactive),> 10 µM (inactive),> 10 µM (inactive),> 10 µM (inactive),> 10 µM (inactive),> 10 µM (inactive),> 10 µM (inactive),> 10 µM (inactive),> 10,> 10 µM (inactive),> 10 µM (inactive),> 10 µM (inactive),> 10 µM (inactive),,> 10 µM (inactive)
COC(=O)c1cc(OS(=O)(=O)C(F)(F)F)c(=O)n2c1CCCC2,> 100 µM (inactive),> 100 µM (inactive),> 100 µM (inactive),9.2 µM (inactive),> 100 µM (inactive),,> 100 µM (inactive),> 100 µM (inactive),> 100 µM (inactive),> 100 µM (inactive),> 100 µM (inactive),> 100 µM (inactive),> 100 µM (inactive),> 100,> 100 µM (inactive),> 100 µM (inactive),> 100 µM (inactive),> 100 µM (inactive),> 100 µM (inactive),> 100 µM (inactive)
C=C(C)C(=O)OC1C(C(C)CCCO)=C(CO)CC2OC(=O)C(=C)C21 (stereo not drawn),30.3 µM (inactive),17.5 µM (inactive),17.1 µM (inactive),37.9 µM (inactive),18.8 µM (inactive),15.2 µM (inactive),20.5 µM (inactive),37.9 µM (inactive),17.1 µM (inactive),29 µM (inactive),16.3 µM (inactive),24.6 µM (inactive),20.2 µM (inactive),13.3,15.6 µM (inactive),12.6 µM (inactive),16.1 µM (inactive),24.1 µM (inactive),,26.5 µM (inactive)
Cc1occc1/C(S)=N\c1ccc(Cl)c(COC(C)(C)C)c1,19.4 µM (inactive),17.1 µM (inactive),15.7 µM (inactive),18.1 µM (inactive),17.7 µM (inactive),,15.8 µM (inactive),20.9 µM (inactive),17.9 µM (inactive),17.1 µM (inactive),19.1 µM (inactive),16.3 µM (inactive),15.6 µM (inactive),17.2,15 µM (inactive),16.7 µM (inactive),14.4 µM (inactive),17.3 µM (inactive),13.1 µM (inactive),18.3 µM (inactive)
CCOc1ccc2nc(-c3ccc(O)cc3)sc2c1,73.1 µM (inactive),> 100 µM (inactive),0.166 µM (active),> 100 µM (inactive),48.6 µM (inactive),> 100 µM (inactive),71 µM (inactive),23.9 µM (inactive),19.6 µM (inactive),24.2 µM (inactive),> 100 µM (inactive),10.3 µM (inactive),43.9 µM (inactive),97.3,> 100 µM (inactive),35 µM (inactive),> 100 µM (inactive),61.2 µM (inactive),17.2 µM (inactive),

# From ChEMBL document CHEMBL1201862, “PubChem BioAssay data set” (2004)
